Counter-ions that a name gives are not always drawn.
Tested on: lipid peroxides (LPO) in rat brain homogenate
Test: Antioxidant activity (Stocks' method): inhibition of lipid peroxide formation in brain homogenate supernatant, TBA method
Type: biochemical, Male Wistar rats
Conditions: for Inhibition (%): rat brain homogenate supernatant, 37° C., 60 minutes, MDA by TBA method
Description: Several typical examples of the compound according to the invention were tested for antioxidant activity according essentially to the Stocks' method. Male Wistar rats (about 10 weeks old) were used. After perfusion for removing the blood from the brain, brain tissues were excised and homogenized in 4 weights of 0.1M phosphate-buffered saline (pH 7.4) with water cooling. The homogenate was centrifuged at 1,000×g for 10 minutes and the supernatant was used. The brain homogenate supernatant was diluted with 10 volumes of phosphate-buffered saline and 500 μl of the dilution was incubated at 37° C. for 60 minutes. The reaction was terminated by dipping the test tube into ice. After further addition 490 μl of 0.1M phosphate-buffered saline, assay was performed by the TBA method. The quantity of lipid peroxides (LPO) was expressed in terms of amount of malonedialdehyde (MDA) per milligram of protein. For protein assay, the Lowry method was used.

Row | Molecule | Inhibition (%) (dose 1 × 10^-3 M) | Inhibition (%) (dose 1 × 10^-4 M) | Inhibition (%) (dose 1 × 10^-5 M) | antioxidant activity (in words) (conclusion from the test results, compared to vitamin E)
1 | CCCCCCCCCCCCCCCCCC(=O)OCC(COP(=O)(O)OC1=C(O)C(C(O)CO)OC1=O)OC(=O)CCCCCCCCCCCCCCCCC (stereo not drawn) [(1), 1,2-O-Distearoyl-3-glycerophosphoryl-ascorbic acid] | 100 | 100 | 25.7 | 
2 | CCCCCCCCCCCCCCCC(=O)OCC(COP(=O)(O)OC1=C(O)C(C(O)CO)OC1=O)OC(=O)CCCCCCCCCCCCCCC (stereo not drawn) [(2), 1,2-O-Dipalmitoyl-3-glycerophosphoryl-ascorbic acid] | 100 | 100 | 55.9 | 
3 | CCCCCCCCCCCCCCCCOCC(COP(=O)(O)OC1=C(O)C(C(O)CO)OC1=O)OCCCCCCCCCCCCCCCC (stereo not drawn) [(3), 1,2-O-Dihexadecyl-3-glycerophosphoryl-ascorbic acid] | 100 | 100 | 70.4 | 
4 | CCCCCCCCCCCC(=O)OCC(COP(=O)(O)OC1=C(O)C(C(O)CO)OC1=O)OC(=O)CCCCCCCCCCC (stereo not drawn) [(4), 1,2-O-Dilauroyl-3-glycerophosphoryl-ascorbic acid potassium salt] | 97.8 | 100 | 8.6 | 
5 | CCCCCCCCCCCC(=O)OCC(COC(=O)CCCCCCCCCCC)OP(=O)(O)OC1=C(O)C(C(O)CO)OC1=O (stereo not drawn) [(5), 1,3-O-Dilauroyl-2-glycerophosphoryl-ascorbic acid potassium salt] | 100 | 82.2 | 20.1 | 
6 | O=C1O[C@H]([C@@H](O)CO)C(O)=C1O [Ascorbic acid, reference compound] | -22.9 | -28.6 |  | rather promoted oxidation
7 | Vitamin E [reference compound] | 94.3 | 62.9 | 28.6 | 

Reference: patent US5098898A, “Phospholipid derivatives” (Senju Pharmaceutical Co., Ltd., priority 1989, dated 1992)
